Where “and” joins values, the source holds several entries; their conditions need not be identical. Equal values may be shown once.
Assay: xn = mol fraction of the nth substance listed

O=S1(=O)CCCC1 + Cc1ccc(C)cc1
viscosity
Conditions	x2 = 0.1118	x2 = 0.2206	x2 = 0.3266	x2 = 0.4301	x2 = 0.531	x2 = 0.6293	x2 = 0.7252	x2 = 0.8191	x2 = 0.9106
303.15 K, 101 kPa	6.156 mPa·s and 6.156 mPa·s	4.093 mPa·s and 4.093 mPa·s	2.887 mPa·s and 2.887 mPa·s	2.143 mPa·s and 2.143 mPa·s	1.608 mPa·s and 1.608 mPa·s	1.253 mPa·s and 1.253 mPa·s	0.989 mPa·s and 0.9893 mPa·s	0.812 mPa·s and 0.8122 mPa·s	0.673 mPa·s and 0.6727 mPa·s
303.15 K, 101.3 kPa	6.156 mPa·s	4.093 mPa·s	2.887 mPa·s	2.143 mPa·s	1.608 mPa·s	1.253 mPa·s	0.9893 mPa·s	0.8122 mPa·s	0.6727 mPa·s
313.15 K, 101 kPa	4.883 mPa·s	3.341 mPa·s	2.384 mPa·s	1.791 mPa·s	1.351 mPa·s	1.066 mPa·s	0.8516 mPa·s	0.7111 mPa·s	0.5929 mPa·s
323.15 K, 101 kPa	3.964 mPa·s and 3.964 mPa·s	2.74 mPa·s and 2.74 mPa·s	2 mPa·s and 2 mPa·s	1.526 mPa·s and 1.526 mPa·s	1.166 mPa·s and 1.166 mPa·s	0.925 mPa·s and 0.9254 mPa·s	0.747 mPa·s and 0.7473 mPa·s	0.627 mPa·s and 0.6269 mPa·s	0.53 mPa·s and 0.53 mPa·s
323.15 K, 101.3 kPa	3.964 mPa·s	2.74 mPa·s	2 mPa·s	1.526 mPa·s	1.166 mPa·s	0.9254 mPa·s	0.7473 mPa·s	0.6269 mPa·s	0.53 mPa·s

CCCCn1cc[n+](C)c1.F[B-](F)(F)F + O
101 kPa
Conditions	viscosity [mPa·s]
298.15 K, x2 = 0.1036	80.9
298.15 K, x2 = 0.6979	9.53
308.15 K, x2 = 0.6004	8.69
313.15 K, x2 = 0.5014	8.98
318.15 K, x2 = 0.4001	9.72
318.15 K, x2 = 0.5014	7.77
323.15 K, x2 = 0.4001	8.41

O=S1(=O)CCCC1 + CCOC(C)=O
303.15 K, 101 kPa
Conditions	viscosity [mPa·s]
x1 = 0.8548	5.285
x1 = 0.9799	9.205

NCCCO + CCCCCCn1cc[n+](C)c1.F[B-](F)(F)F
101 kPa
Conditions	viscosity [mPa·s]
303.15 K, x2 = 0.3217	34.55
308.15 K, x2 = 0.4942	36.45

Nc1ccccc1Cl + Cc1ccccc1Cl
viscosity [mPa·s], 101 kPa
Conditions	x1 = 0.11	x1 = 0.2176	x1 = 0.3228	x1 = 0.4258	x1 = 0.5266	x1 = 0.6253	x1 = 0.7219	x1 = 0.8165	x1 = 0.9092
303.15 K	1.073	1.284	1.521	1.782	2.069	2.379	2.711	3.065	3.437
308.15 K	0.9808	1.175	1.392	1.63	1.888	2.164	2.458	2.765	3.084
313.15 K	0.8896	1.07	1.271	1.49	1.726	1.976	2.238	2.507	2.783
318.15 K	0.7935	0.9642	1.153	1.358	1.578	1.808	2.045	2.286	2.526

C=O + O
viscosity [mPa·s], 101 kPa
Conditions	x1 = 0.03	x1 = 0.062	x1 = 0.13	x1 = 0.2	x1 = 0.29	x1 = 0.37
293.15 K	1.13	1.26	1.54	1.95	–	–
303.15 K	0.91	1.01	1.25	1.54	–	–
313.15 K	0.74	0.82	1.01	1.24	–	–
323.15 K	0.61	0.68	0.83	1.01	1.61	2.11

O=S1(=O)CCCC1 + NCCO
viscosity [mPa·s], 101 kPa
Conditions	x2 = 0.1	x2 = 0.3369	x2 = 0.5426	x2 = 0.7423	x2 = 0.8999
303.15 K	14.02	11.47	9.923	9.547	9.78
323.15 K	7.103	6.2	5.815	5.85	6.195

C1CC[NH2+]C1.CCCCCCCC(=O)[O-] + CCCCO
viscosity [mPa·s], 101 kPa
Conditions	x1 = 0.1198	x1 = 0.2524	x1 = 0.3299	x1 = 0.4745	x1 = 0.6187	x1 = 0.7174	x1 = 0.7912	x1 = 0.9269
293.15 K	5.39	10.82	13.21	22.51	34.14	44.35	51.93	65.75
298.15 K	6.9	10.82	–	21.6	30.39	38.92	44.89	57.02
303.15 K	4.75	8.64	11.15	17	24.8	31.23	35.44	45.4
308.15 K	4.32	7.79	10.03	14.95	21.43	26.63	29.97	38.73
313.15 K	3.6	6.6	8.5	13	17.8	21.5	25.3	31.7

Nc1ccccc1Cl + ClC(Cl)(Cl)Cl
viscosity [mPa·s], 100 kPa
Conditions	x2 = 0.1011	x2 = 0.1916	x2 = 0.2901	x2 = 0.3811	x2 = 0.4923	x2 = 0.5989	x2 = 0.6911	x2 = 0.7741	x2 = 0.8897
298.15 K	3.882	3.589	3.268	2.97	2.604	2.25	1.942	1.664	1.273
303.15 K	3.532	3.269	2.981	2.713	2.382	2.063	1.785	1.533	1.179
308.15 K	3.158	2.927	2.675	2.439	2.149	1.868	1.622	1.4	1.086
313.15 K	2.837	2.634	2.411	2.203	1.947	1.699	1.482	1.284	1.005
318.15 K	2.566	2.387	2.189	2.004	1.776	1.554	1.361	1.185	0.934

O=S1(=O)CCCC1 + C1COCO1
viscosity [mPa·s], 101 kPa
Conditions	303.15 K	308.15 K	313.15 K	318.15 K	323.15 K
x1 = 0.207	0.89	0.85	0.82	0.78	0.75
x1 = 0.43	1.49	1.39	1.24	1.21	1.17
x1 = 0.658	3.04	2.53	2.32	2.12	1.99
